From patent publication US9273043B2, “TRPV1 antagonists including dihydroxy substituent and uses thereof” (Purdue Pharma L.P., priority 2011, dated 2016) come the findings set out here.

Data set [1] can be described thus: In vivo assay of body temperature increase (rectal body temperature). On the set-up: species or system rat. The following applies: rats, oral, 10 mL/kg of 1 mg/mL in 0.5% methylcellulose; greatest ΔTb versus vehicle control at 0.5, 1 or 2 hrs. An excerpt:
Hyperthermia or undesirable elevation in animal body temperature is known to be an undesirable side-effect accompanying the administration of certain TRPV1 antagonists (Gavva, “Body-temperature maintenance as the predominant function of the vanilloid receptor TRPV1,” Trends Pharmacol. Sci. 29(11):550-557 (2008)).
Test Animals: Selection of rats (Crl/SD rats, 7 weeks, male) was based on rectal body temperature measured during the morning of the day of dosing as described below. In addition, to minimize spontaneous, stress-induced increases in body temperature, rats were acclimated in advance to both the rectal measurement procedure and to being handled and dosed. All lodging and testing took place in animal care laboratories with constant room temperature and humidity. The rats were free to move and ingest food and water throughout. Each rat was coded with a colored line on the tail, housed in a separate cage, and permitted the normal range of movement. Immediately before each body temperature measurement, a rat was transferred to a measurement cage. To reduce stress which could influence its body temperature, each rat was covered with towels during the measurement. A thermistor probe was then carefully inserted into the rectum of each rat and left in place until the temperature reading on the digital display had stabilized; this value was recorded.
Assay: On the day before dosing, rectal body temperature was measured at 9:00, 10:00, 11:00, 12:30, 13:30, 14:30, and 15:30 o'clock to familiarize the rats with the measurement procedure prior to administration of the test or control treatments. The rats were also dosed by oral gavage without vehicle at 12:30 o'clock to acclimate and familiarize them with the handling and dosing procedure.
On the day of dosing, only rats with rectal body temperatures within the range of from 37.0° C. to 37.7° C. were selected for study. Rectal body temperatures were measured at 9:00, 10:00, and 11:00 o'clock. Rats were excluded from the study if either their rectal body temperature was over 37.9° C. at 10:00 o'clock or was outside the range of from 37.0° C. to 37.7° C. at 11:00 o'clock. The selected rats were divided into several groups based on their rectal body temperatures at 11:00 o'clock. Rectal body temperatures of the selected rats were measured again at 12:30 o'clock and any rat with a rectal body temperature of 38.0° C. or greater was also excluded from the study.
Following assignment to either a test or control group, a test compound or a control was administered to the rats. Each test compound was dissolved in a vehicle of 0.5% aqueous methylcellulose solution and the final concentration of the test compound was adjusted to 1 mg/mL. Each test compound was orally administered once at a dose of 10 mL/kg. The same volume of the control (vehicle only) was administered once to the control group. Rectal body temperatures were measured at the following time points: 0.5, 1, and 2 hrs after administration.
The body temperature increase (ΔTb) for each test compound was calculated by subtracting, at each time point, the average temperature of the control group from the average temperature of the group administered that test compound. The greatest ΔTb obtained for each test compound at any of the time points is shown in Table 11 below, along with the ΔTb of the control.

The nature of data set [2]: Aqueous solubility at pH 1.2 and pH 6.8. Format: physicochemical. The following applies: aqueous solution.
Data set [3] deals with FCA-induced inflammation of the rat hind paw. Nature of the data set: Freund's complete adjuvant (FCA) model of inflammatory pain, paw withdrawal threshold. In kind it is in vivo. The note with it: rat FCA, 20 mg/kg. On the procedure:
Test Animals: Each experiment uses rats weighing between 200-260 g at the start of the experiment. The rats are group-housed and have free access to food and water at all times, except prior to oral administration of a Compound of Formula (I) when food is removed for 16 hours before dosing. A control group acts as a comparison to rats treated with a Compound of Formula (I). The control group is administered the vehicle for the Compound of Formula (I). The volume of vehicle administered to the control group is the same as the volume of carrier and Compound of Formula (I) administered to the test group.
Inflammatory Pain: To assess the actions of a Compound of Formula (I) for the treatment or prevention of inflammatory pain, the Freund's complete adjuvant (“FCA”) model of inflammatory pain was used. FCA-induced inflammation of the rat hind paw is associated with the development of persistent inflammatory mechanical hyperalgesia and provides reliable prediction of the anti-hyperalgesic action of clinically useful analgesic drugs (Bartho et al., “Involvement of capsaicin-sensitive neurons in hyperalgesia and enhanced opioid antinociception in inflammation,” Naunyn-Schmiedeberg's Archives of Pharmacol. 342:666-670 (1990)). The right hind paw of each male, 6-week old Jcl:SD rat was administered a 50 μL intraplantar injection of 50% FCA (Sigma-Aldrich). 24 hour post-injection, the animal was assessed for response to noxious mechanical stimuli by determining the PWT, as described below. Rats were then administered a single injection of 0.1, 0.3, 1, 3, or 10 mg/kg of either the product prepared with Compound A155(a) and fumaric acid as described in Example 10, 20 mg/kg of an ibuprofen control (EMD Millipore Chemicals, Inc.), or vehicle as a control (0.5% weight/volume methylcellulose (400cP, Wako Pure Chemical Industries, Ltd., Osaka, Japan)/aqueous solution). […] Responses to noxious mechanical stimuli were then determined 1, 3, 5, and 7 hours post-administration. Percentage reversal of hyperalgesia for each animal was defined as: […]
With the exception of the controls (i.e., ibuprofen, vehicle) where the student's t-test was used, Dunnett's test was conducted for the % reversal. In either instance, values with p<0.05 were considered to be statistically significant. The % reversal results for administration of the product prepared with Compound A155(a) and fumaric acid as described in Example 10 and the respective controls are presented in Table 7.
Response to Mechanical Stimuli as an Assessment of Mechanical Hyperalgesia: The paw pressure assay was used to assess mechanical hyperalgesia. For this assay, hind paw withdrawal thresholds (PWT) to a noxious mechanical stimulus were determined using an analgesymeter (Model 37215, commercially available from Ugo Basile of Italy) as described in Stein, “Unilateral Inflammation of the Hindpaw in Rats as a Model of Prolonged Noxious Stimulation: Alterations in Behavior and Nociceptive Thresholds,” Pharmacol. Biochem. and Behavior 31:451-455 (1988). The maximum weight that could be applied to the hind paw was set at 250 g and the end point was taken as complete withdrawal of the paw. PWT was determined once for each rat at each time point and either only the affected (ipsilateral) paw was tested, or both the ipsilateral and contralateral (non-injured) paw were tested.

The mark [4] stands for this setting: pH 1.2, read-out: aqueous solubility at pH 1.2.
Where [5] appears, read: pH 6.8, read-out: aqueous solubility at pH 6.8.

Converted amounts (≈) assume the structure as drawn. Read-outs that look alike come from different tables or passages of the source. Marks after values point to notes of the source that are not given here.

In general, solubility refers to the dissolved amount per volume that the medium holds.

Consider `C[C@H]1CN(c2ncc([C@H](O)CO)cc2Cl)CCN1C(=O)Nc1nc2ccc(F)cc2s1` [AA], for which, in data set [1], the “ΔTb, body temperature increase” value stood at 0.8 °C.
Still for that read-out and setting: for `C[C@H]1CN(c2ncc([C@H](O)CO)cc2F)CCN1C(=O)Nc1nc2ccc(Cl)cc2s1` [AB] the value was 0.6 °C; for `C[C@H]1CN(c2ncc([C@H](O)CO)cc2F)CCN1C(=O)Nc1nc2ccc(F)cc2s1` [AC], 0.7 °C.
In the case of `C[C@H]1CN(C(=O)Nc2nc3ccc(F)cc3s2)CCN1c1ncc([C@H](O)CO)cc1F` [AD], the “ΔTb, body temperature increase” value in data set [1] came out at 0.6 °C.
For the compound `C[C@H](O)[C@@H](O)c1cnc(N2CCN(C(=O)Nc3nc4ccc(F)cc4s3)[C@H](C)C2)c(Cl)c1` [BA], the “ΔTb, body temperature increase” value in data set [1] worked out at 0.9 °C.
In the case of `C[C@H](O)[C@@H](O)c1cnc(N2CCN(C(=O)Nc3nc4ccc(F)cc4s3)[C@H](C)C2)c(F)c1` [BC], the “ΔTb, body temperature increase” value in data set [1] worked out at 0.7 °C.
`O=C(Nc1ccc(C(F)(F)F)cc1)N1CC=C(c2ncccc2Cl)CC1` [Compound 200]: in data set [2] (setting [4]), the solubility is below 0.1 µM.
As for `O=C(Nc1ccc(C(F)(F)F)cc1)N1CCC(F)(c2ncccc2Cl)CC1` [Compound 203], the “aqueous solubility at pH 6.8” value in data set [2] (pH 6.8) is on record as “insoluble”.
Take `O=C(Nc1ccc(C(F)(F)F)cc1)N1CCC(F)(c2ncccc2F)CC1` [Compound 207]: in data set [2] (pH 6.8), the “aqueous solubility at pH 6.8” value is reported as “insoluble”.
The same measure, in the same setting: as for `O=C(Nc1ccc(C(F)(F)F)cc1)N1CC=C(c2ncccc2F)CC1` [Compound 208], the entry is “insoluble”.
With `O=C(Nc1ccc(C(F)(F)F)c(F)c1)N1CCC(F)(c2ncccc2Cl)CC1` [Compound 209], the results for the solubility in data set [2] (setting [4]) and in data set [2] (setting [5]) were 9.3 µM (≈ 3.9 µg/mL) and 1.0 µM (≈ 0.42 µg/mL), respectively.
Take `O=C(Nc1ccc(S(=O)(=O)C(F)(F)F)cc1)N1CCC(F)(c2ncccc2Cl)CC1` [Compound 210]: the values for the solubility in data set [2] (setting [4]) and in data set [2] (setting [5]) were 2.0 µM (≈ 0.932 µg/mL) and 0.4 µM (≈ 0.186 µg/mL), respectively.
For `O=C(Nc1ccc(OC(F)(F)F)cc1)N1CCC(F)(c2ncccc2Cl)CC1` [Compound 211] the same measures were 1.3 µM (≈ 0.543 µg/mL) and 0.4 µM (≈ 0.167 µg/mL).
In the same order, the values of `O=C(Nc1ccc(C(F)(F)F)c(F)c1)N1CCC(F)(c2ncccc2F)CC1` [Compound 212] are 10.3 µM (≈ 4.15 µg/mL) and 1.9 µM (≈ 0.766 µg/mL).
In the same order, the values of `O=C(Nc1ccc(C(F)(F)F)c(F)c1)N1CC=C(c2ncccc2Cl)CC1` [Compound 213] are 39.6 µM (≈ 15.8 µg/mL) and 0.8 µM (≈ 0.32 µg/mL).
With `O=C(Nc1ccc(OC(F)(F)F)cc1)N1CC=C(c2ncccc2Cl)CC1` [Compound 214], the solubility in data set [2] (setting [4]) was above 50 µM; in data set [2] (setting [5]), 1.8 µM (≈ 0.716 µg/mL).
Take `C[C@@H]1CN(c2ncc([C@H](O)CO)cc2Cl)CCN1C(=O)Nc1nc2ccccc2s1` [DA]: the “ΔTb, body temperature increase” value in data set [1] stood at 0.9 °C.
Same read-out and setting: for `C[C@@H]1CN(c2ncc([C@H](O)CO)cc2F)CCN1C(=O)Nc1nc2ccccc2s1` [DB] the value was 1.1 °C; for `C[C@@H]1CN(c2ncc([C@H](O)CO)cc2C(F)(F)F)CCN1C(=O)Nc1nc2ccccc2s1` [DC], 1.0 °C; for `O=C(Nc1nc2ccc(F)cc2s1)N1CCN(c2ncc([C@H](O)CO)cc2Cl)CC1` [DD], 1.0 °C.
The same measure, in the same setting: for `C[C@@H]1CN(c2ncc([C@H](O)CO)cc2Cl)CCN1C(=O)Nc1nc2ccc(F)cc2s1` [DE] the value was 1.3 °C; for `O=C(Nc1nc2ccc(F)cc2s1)N1CCN(c2ncc([C@H](O)CO)cc2F)CC1` [DF], 0.5 °C; for `C[C@@H]1CN(c2ncc([C@H](O)CO)cc2F)CCN1C(=O)Nc1nc2ccc(F)cc2s1` [DG], 1.0 °C.
On to `O=C(Nc1nc2ccc(F)cc2s1)N1CCN(c2ncc([C@H](O)CO)cc2C(F)(F)F)CC1` [DH], for which, in data set [1], the “ΔTb, body temperature increase” value was found to be 0.9 °C.
The same measure, in the same setting: as for `C[C@@H]1CN(c2ncc([C@H](O)CO)cc2C(F)(F)F)CCN1C(=O)Nc1nc2ccc(F)cc2s1` [DI], the figure is 0.8 °C; as for `Cc1ccc2nc(NC(=O)N3CCN(c4ncc([C@H](O)CO)cc4Cl)CC3)sc2c1` [DJ], 0.9 °C; as for `C[C@@H]1CN(c2ncc([C@H](O)CO)cc2F)CCN1C(=O)Nc1nc2cc(F)ccc2s1` [DK], 0.7 °C.
Same read-out and setting: for `Cc1cc2nc(NC(=O)N3CCN(c4ncc([C@H](O)CO)cc4F)C[C@H]3C)sc2cc1C` [DL] the value was 0.9 °C; for `Cc1cc2nc(NC(=O)N3CCN(c4ncc([C@H](O)CO)cc4C)CC3)sc2cc1C` [DM], 0.9 °C; for `Cc1cc([C@H](O)CO)cnc1N1CCN(C(=O)Nc2nc3ccc(Cl)cc3s2)CC1` [DN], 0.8 °C.
Still for that read-out and setting: for `COc1ccc2nc(NC(=O)N3CCN(c4ncc([C@H](O)CO)cc4F)C[C@H]3C)sc2c1` [DO] the value was 1.1 °C; for `COc1ccc2nc(NC(=O)N3CCN(c4ncc([C@H](O)CO)cc4Cl)CC3)sc2c1` [DP], 1.2 °C.
Take `CC(C)Cc1ccc(C(C)C(=O)O)cc1` (stereo not shown) [Ibuprofen, ibuprofen, reference compound]: the “% Reversal [mean]” value was 28.6^†† % in data set [3] (1 h after administration); 28.6% in data set [3] (1 h after administration, listed as ibuprofen); 41.5^†† % in data set [3] (3 h after administration); 41.5% in data set [3] (3 h after administration, listed as ibuprofen); 39.2^†† % in data set [3] (5 h after administration); 39.2% in data set [3] (5 h after administration, listed as ibuprofen). The “% Reversal [mean]” value in data set [3] (7 h after administration) was 32.5^†† %; in data set [3] (7 h after administration, listed as ibuprofen) it was 32.5%.
